Results on 26 compounds are retold here after ChEMBL document CHEMBL3286297, “Design, synthesis and antiproliferative activity of a novel class of indole-2-carboxylate derivatives” (Eur J Med Chem, 2014).

The IC50 is the point on the concentration scale where inhibition reaches its midpoint. Higher therefore signals weaker potency.

Calls of active or inactive are those of the source. No cut-off for these calls is given here.

Holding throughout (type): functional, cell-based
One experiment concerns HepG2. Briefly: Antiproliferative against human HepG2 cells after 48 hrs by MTT assay. To be noted: HepG2, 48 h.
For experiment [1], the system named is A549. Briefly: Antiproliferative against human A549 cells after 48 hrs by MTT assay. Particulars: A549, 48 h. In general terms: Tetrazolium assays rely on reduction of a dye to a coloured formazan, in cell work by metabolically active cells.
The subject of a further experiment is MCF7. The experiment in a line: Antiproliferative against human MCF7 cells after 48 hrs by MTT assay. Particulars: MCF7, 48 h.
The subject of experiment [2] is A549. Briefly: Cell cycle arrest in human A549 cells assessed as accumulation at G2/M phase after 48 hrs by flow cytometric analysis. Background: A flow cytometer gives signals particle by particle.
For experiment [3], the system named is A549. Briefly: Cell cycle arrest in human A549 cells assessed as accumulation at G1 phase after 48 hrs by flow cytometric analysis.
The subject of experiment [4] is A549. Briefly: Induction of reactive oxygen species generation in human A549 cells after 48 hrs by […].
In experiment [5] the test system is A549. The experiment in a line: Induction of apoptosis in human A549 cells assessed as […] cleavage after 48 hrs by Western blot analysis. For orientation: Immunoblotting shows a protein as a band on a membrane.
Experiment [6] deals with A549. The experiment in a line: Induction of reactive oxygen species generation in human A549 cells at 200 uM after 48 hrs by […].

As for `CCCCOc1cccc2[nH]c(C(=O)OC)cc12`, the IC50 was above 200 µM in the experiment with HepG2, 87.1 µM in the experiment on A549 [1] and above 200 µM with MCF7.
Take `COC(=O)c1cc2c(OC)cccc2[nH]1`: the concentration for half-maximal inhibition (IC50) in the experiment on HepG2, in the experiment with A549 [1] and in the experiment on MCF7 was above 200 µM throughout.
As to `C=CCOc1cc(N)cc2[nH]c(C(=O)OC)cc12`, the IC50 with HepG2, in the experiment on A549 [1] and in the experiment on MCF7 was above 200 µM each time.
For the compound `COC(=O)c1cc2c(OCC(C)C)cccc2[nH]1`, the concentration for half-maximal inhibition (IC50) is above 200 µM in the experiment with HepG2, 51.4 µM with A549 [1] and above 200 µM in the experiment with MCF7.
As to `COC(=O)c1cc2ccc(N)cc2[nH]1`, the IC50 with HepG2, in the experiment with A549 [1] and in the experiment with MCF7 was above 200 µM each time.
For the compound `COC(=O)c1cc2c(OCC(C)C)cc(N)cc2[nH]1`, the IC50 worked out at 68.9 µM in the experiment with HepG2, 11.4 µM in the experiment with A549 [1] and 97.4 µM in the experiment on MCF7.
In the case of `COC(=O)c1cc2c(OCC3CCCCC3)cc(NC(C)=O)cc2[nH]1`, the half-inhibitory concentration (IC50) with HepG2, in the experiment on A549 [1] and in the experiment on MCF7 was above 200 µM in each case.
With `CCCOc1cc(OC)cc2[nH]c(C(=O)OC)cc12`, the IC50 is above 200 µM in the experiment on HepG2, 25.4 µM in the experiment with A549 [1] and 18.8 µM in the experiment on MCF7.
As to `COC(=O)c1cc2c(OC(C)C)cc(OC)cc2[nH]1`, the Activity entry in the experiment with A549 [2], in the experiment with A549 [3], in the experiment on A549 [4] and with A549 [5] was “Dose-dependent effect” throughout. In addition, the values for the IC50 with HepG2, in the experiment with A549 [1] and in the experiment with MCF7 were 3.8 µM, 24.1 µM and 6.38 µM, respectively.
`COC(=O)c1cc2c(OCC(C)C)cc(NC(C)=O)cc2[nH]1`: the half-maximal inhibitory concentration (IC50) in the experiment with HepG2, in the experiment on A549 [1] and with MCF7 was above 200 µM in each case.
As to `COC(=O)c1cc2c(OC(C)C)cccc2[nH]1`, the IC50 with HepG2, in the experiment with A549 [1] and in the experiment on MCF7 was above 200 µM in each case.
`COc1cc([C@@H]2c3cc4c(cc3[C@@H](O[C@@H]3O[C@@H]5CO[C@@H](C)O[C@H]5[C@H](O)[C@H]3O)[C@H]3COC(=O)[C@H]23)OCO4)cc(OC)c1O` [ETOPOSIDE]: the IC50 in the experiment with HepG2 was found to be 13.7 µM; with A549 [1], 242 µM; in the experiment with MCF7 it was 81.1 µM.
The like results for `COC(=O)c1cc2c(O)cc(N)cc2[nH]1` were, in that order, above 200 µM, above 200 µM and above 200 µM.
In the case of `CCCOc1c(OCC)ccc2[nH]c(C(=O)OC)cc12`, the IC50 in the experiment with HepG2 is 63.5 µM; in the experiment with A549 [1] it was above 200 µM; in the experiment with MCF7 it was above 200 µM.
Consider `CCOc1ccc2[nH]c(C(=O)OC)cc2c1OCC1CCCCC1`, for which the IC50 in the experiment on HepG2 was above 200 µM; in the experiment with A549 [1], 65.2 µM; in the experiment with MCF7, above 200 µM.
As for `COC(=O)c1cc2c(OCc3ccccc3)cc(N)cc2[nH]1`, the IC50 with HepG2, with A549 [1] and in the experiment on MCF7 was above 200 µM in each case.
On to `COC(=O)c1cc2c(OCC3CCCCC3)cc(N)cc2[nH]1`, for which the Activity result in the experiment on A549 [2], with A549 [3], in the experiment on A549 [4] and with A549 [5] was “Dose-dependent effect” in each case. Also, the IC50 turned out to be 14.5 µM in the experiment with HepG2, 3.98 µM in the experiment on A549 [1] and 3.78 µM in the experiment on MCF7.
As for `COC(=O)c1cc2c(OCC3CCCCC3)cccc2[nH]1`, the half-maximal inhibitory concentration (IC50) in the experiment with HepG2 was above 200 µM; in the experiment with A549 [1] it was 31.1 µM; with MCF7, 89.8 µM.
Take `CCCCOc1c(OCC)ccc2[nH]c(C(=O)OC)cc12`: the values for the IC50 with HepG2, in the experiment on A549 [1] and in the experiment on MCF7 were 168 µM, 102 µM and above 200 µM, respectively.
On to `CCCCOc1cc(OC)cc2[nH]c(C(=O)OC)cc12`, for which the IC50 with HepG2 was above 200 µM; in the experiment with A549 [1], 40.4 µM; in the experiment with MCF7, 41.8 µM.
For `O=C(O)c1cc(C(=O)O)c2c(n1)C(=O)C(=O)c1cc(C(=O)O)[nH]c1-2` [PYRROLOQUINOLINE QUINONE], the IC50 in the experiment on HepG2 stood at 45.7 µM; with A549 [1], 750 µM; with MCF7, 25.5 µM. Besides, the result in the experiment on A549 [6] was Active.
Consider `CC(=O)O[C@H]1C(=O)[C@@]2(C)[C@H]([C@H](OC(=O)c3ccccc3)[C@]3(O)C[C@H](OC(=O)[C@H](O)[C@@H](NC(=O)c4ccccc4)c4ccccc4)C(C)=C1C3(C)C)[C@]1(OC(C)=O)CO[C@@H]1C[C@@H]2O` [PACLITAXEL], for which the IC50 was found to be 0.0673 µM in the experiment with HepG2, 1.53 µM in the experiment with A549 [1] and 0.0258 µM in the experiment with MCF7.
The matching figures for `COC(=O)c1cc2ccc(N(C)C)cc2[nH]1`: above 200 µM, above 200 µM and above 200 µM.
The like results for `COC(=O)c1cc2c(OCc3ccc(F)cc3)cc(N)cc2[nH]1` were, in that order, above 200 µM, above 200 µM and above 200 µM.
As to `COC(=O)c1cc2c(OCC3CCCCC3)cc(OC)cc2[nH]1`, the figures for the IC50 in the experiment with HepG2, with A549 [1] and with MCF7 were above 200 µM, 107 µM and 81.1 µM, respectively.
Consider `CCCOc1cccc2[nH]c(C(=O)OC)cc12`, for which the IC50 with HepG2, in the experiment on A549 [1] and with MCF7 was above 200 µM in each case.
